Results from PMC10511816 (The Journal of Biological Chemistry, 2023).

Tests used:
[1] = molecular target: T1, XO type enzyme (xanthine oxidase) (Bos taurus, UniProt P80457); assay: time-dependent inhibition of uric acid production from xanthine by XO (A295); type: biochemical, bovine; settings: for 50% inhibition time of uric acid production / stop time of uric acid production: pH 8.5, 25 °C
T1 construct: Bovine milk was obtained from the animal farm of the Nippon Veterinary and Life Science University; from tissue; host or cells: bovine milk
Description: A295 indicates the concentration of uric acid yielded by XOR. […] Uric acid production was measured at 295 nm at 25 °C.
(§1) Bovine milk was obtained from the animal farm of the Nippon Veterinary and Life Science University. […] The dehydrogenase form of the enzyme (XDH) was obtained by reacting XO immediately upon purification with 5 mM DTT at pH 8.5, 25 °C for 1 h. XO and XDH assays were carried out at 25 °C under aerobic conditions. […] A total of 500 μM β-NAD^+ was added to the same reaction solution for XDH activity. Physiological conditions such as pH 7.4 (0.1 M potassium phosphate buffer (KPB), 0.2 mM EDTA) and the addition of 50 μM β-NADH were also used. The activity was measured by following 295 nm and 340 nm on a UV-1800 or UV1900i spectrophotometer. […] In addition, the enzyme reaction solution was quenched with perchloric acid and neutralized with K2CO3, with products analyzed using HPLC as described below. Spectrophotometric data were analyzed using UV-Probe software Ver. 2.70 or LabSolutions UV-Vis Ver. […] Kinetic parameters were determined from nonlinear curve fits of raw data using GraphPad Prism 9 software.

[2] = molecular target: T2, XO (Bos taurus, UniProt P80457); settings: 3 μM allopurinol, 2 μM xanthine, 2.56 nM XO, pH 7.4, 37 °C
[3] = molecular target: XOR; settings: read-out: Ki for the xanthine to uric acid reaction; steady-state kinetic analysis; cited from earlier work
[4] = molecular target: T2, XO; assay: oxidation of hypoxanthine to xanthine and uric acid by XO, HPLC time course; type: biochemical, bovine; design: Bovine milk was obtained from the animal farm of the Nippon Veterinary and Life Science University; from tissue; host or cells: bovine milk
Description: The rate of NAD^+ conversion to NADH was measured at A340 nm.
as §1
Purine concentrations were measured using a Shimadzu HPLC system consisting of the CBM-20A controller, LC-20AD pump, SIL-20AC autosampler (set at 4 °C), CTO-20A column oven (set at 40 °C), and SPD-M20A diode array detector. Peak analysis was performed using LC solution software. A SUPELCOSIL LC-18-T column (25 cm × 4.6 mm id 5 μm particle size) was used with the SUPELCOSIL LC-18-T Supelguard guard column separation of purines, using a flow rate was 0.8 ml/min and 10 or 20 μl samples. The mobile phase used was A: 0.1 M KPB and 4 mM tetrabutylammonium hydrogen sulfate (pH 5.5), B: 70% buffer A and 30% methanol (v/v). Gradient conditions were 0 min (0% B), 2 min (0% B), 4 min (30% B), 12 min (60% B), 15 min (100% B), 19 min (100% B), 20 min (0% B), and 30 min (0% B). Detection wavelengths were 254 nm, 268 nm, and 295 nm. The data were analyzed using LabSolutions Ver. 5.97 SP1. All purines were identified by retention time and quantified using an external standard.

[5] = test system: xanthine oxidase; design: method as in Graham et al. 64; settings: ref Graham et al. 64; cited from earlier work
[6] = molecular target: T2, XO; assay: initial-velocity steady-state kinetics of XO, O2 as electron acceptor; type: biochemical, bovine; design: Bovine milk was obtained from the animal farm of the Nippon Veterinary and Life Science University; from tissue; host or cells: bovine milk
Description: as §1
A295 indicates the concentration of uric acid yielded by XOR. […] A295 indicates the concentration of uric acid yielded by XOR. Figure S2. The XOR inhibition mode of oxypurinol.A–G, Lineweaver-Burk plots were generated to visualize data and estimated the inhibition patterns. Data are representative of least two independent experiments. […] Figure S3. […] B, mode of inhibition of oxypurinol on the inosine degradation reaction of PNP. […] 0, 250, 375, 500, 750 and 1000 μM of oxypurinol were used. […] The rate of NAD^+ conversion to NADH was measured at A340 nm.

[7] = xanthine 5 μM, inhibitor 2 μM, XO
[8] = xanthine 10 μM, inhibitor 2 μM, XO
[9] = xanthine 50 μM, inhibitor 2 μM, XO
[10] = xanthine 50 μM, inhibitor 10 μM, XO
[11] = xanthine 50 μM, inhibitor 50 μM, XO
[12] = xanthine 2 μM, inhibitor 2 μM, XO
[13] = xanthine 2 μM, inhibitor 10 μM, XO
[14] = xanthine 5 μM, inhibitor 10 μM, XO

T1 sequence (P80457 whole entry): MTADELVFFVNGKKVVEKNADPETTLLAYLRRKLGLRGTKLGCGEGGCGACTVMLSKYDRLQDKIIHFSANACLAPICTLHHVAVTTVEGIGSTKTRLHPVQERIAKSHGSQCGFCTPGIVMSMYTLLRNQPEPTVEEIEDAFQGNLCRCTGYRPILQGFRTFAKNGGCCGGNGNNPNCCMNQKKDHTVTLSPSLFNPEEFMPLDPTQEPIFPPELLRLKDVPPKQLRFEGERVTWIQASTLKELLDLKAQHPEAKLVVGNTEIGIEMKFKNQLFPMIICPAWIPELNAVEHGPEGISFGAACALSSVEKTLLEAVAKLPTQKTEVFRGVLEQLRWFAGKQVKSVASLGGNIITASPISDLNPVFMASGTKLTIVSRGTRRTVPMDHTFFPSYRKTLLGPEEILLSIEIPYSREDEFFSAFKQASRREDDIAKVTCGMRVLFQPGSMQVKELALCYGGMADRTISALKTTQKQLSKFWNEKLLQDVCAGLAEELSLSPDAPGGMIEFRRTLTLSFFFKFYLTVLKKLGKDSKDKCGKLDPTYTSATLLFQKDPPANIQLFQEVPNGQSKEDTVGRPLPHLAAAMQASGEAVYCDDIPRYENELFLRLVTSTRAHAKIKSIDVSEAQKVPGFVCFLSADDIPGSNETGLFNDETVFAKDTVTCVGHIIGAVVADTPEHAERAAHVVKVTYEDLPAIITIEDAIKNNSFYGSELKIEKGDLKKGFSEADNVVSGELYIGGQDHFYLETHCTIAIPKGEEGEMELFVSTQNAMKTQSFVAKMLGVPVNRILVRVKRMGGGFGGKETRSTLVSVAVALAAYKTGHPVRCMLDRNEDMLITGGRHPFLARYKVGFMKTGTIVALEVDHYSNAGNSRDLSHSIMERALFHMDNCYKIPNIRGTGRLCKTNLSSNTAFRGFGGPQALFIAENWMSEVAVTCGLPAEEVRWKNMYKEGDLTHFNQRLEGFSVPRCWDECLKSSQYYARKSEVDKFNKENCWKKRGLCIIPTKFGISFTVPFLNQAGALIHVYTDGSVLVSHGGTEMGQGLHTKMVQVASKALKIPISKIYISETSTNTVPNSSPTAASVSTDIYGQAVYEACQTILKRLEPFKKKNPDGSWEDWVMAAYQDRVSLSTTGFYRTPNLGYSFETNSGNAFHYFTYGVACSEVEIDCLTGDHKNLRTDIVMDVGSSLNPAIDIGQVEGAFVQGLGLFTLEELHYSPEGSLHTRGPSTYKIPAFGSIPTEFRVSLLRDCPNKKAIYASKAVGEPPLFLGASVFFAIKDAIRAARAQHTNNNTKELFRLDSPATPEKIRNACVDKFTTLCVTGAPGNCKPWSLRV
T2 sequence (P80457 whole entry): as above

Oc1ncnc2[nH]ncc12 [Allopurinol]
effect on uric acid production ([1]; 10 μM or 50 μM inhibitor, 50 μM xanthine, XO): stops uric acid production immediately
50% inhibition time of uric acid production [1, 7]: 1.0 min
stop time of uric acid production [1, 7]: 3.0 min
50% inhibition time of uric acid production [1, 8]: 1.4 min
stop time of uric acid production [1, 8]: 6.9 min
50% inhibition time of uric acid production [1, 9]: 3.8 min
stop time of uric acid production [1, 9]: 14.9 min
50% inhibition time of uric acid production [1, 10]: 1.2 min
stop time of uric acid production [1, 10]: 4.5 min
50% inhibition time of uric acid production [1, 11]: 0.2 min
stop time of uric acid production [1, 11]: 0.7 min
immediate accumulation of oxypurinol [2]: 0.5 µM
time at which xanthine was completely converted to uric acid [2]: 300 min
time for which uric acid production was stopped [2]: up to 60 min
Ki [3]: 0.1 µM
time to inhibit conversion of hypoxanthine to xanthine ([4]; 10 μM inhibitor, 2.5 μM hypoxanthine, XO, pH 7.4, 25 °C): about 5 min
inhibition of conversion of hypoxanthine to xanthine ([4]; 50 μM inhibitor, 2.5 μM hypoxanthine, XO): inhibition was immediate

O=c1[nH]c(=O)c2c[nH]nc2[nH]1 [Oxypurinol]
mode of inhibition ([1]; 2 μM xanthine, 0.1 M KPB pH 7.4): strictly competitive
uric acid production in presence of inhibitor ([1]; 2 μM xanthine, 0.1 M KPB pH 7.4, 0 to 400 μM oxypurinol): uric acid production was evident even with 400 μM oxypurinol
50% inhibition time of uric acid production [1, 12]: 9.0 min
stop time of uric acid production [1, 12]: 58.3 min
50% inhibition time of uric acid production [1, 13]: 14.9 min
stop time of uric acid production [1, 13]: 89.0 min
50% inhibition time of uric acid production ([1]; xanthine 2 μM, inhibitor 50 μM, XO): 49.5 min
ratio of 50% inhibition time, oxypurinol (min)/allopurinol (min) ([1]; xanthine 5 μM, inhibitor 2 μM): 10.8
ratio of stop time, oxypurinol (min)/allopurinol (min) ([1]; xanthine 5 μM, inhibitor 2 μM): 25.9
50% inhibition time of uric acid production [1, 7]: 10.8 min
stop time of uric acid production [1, 7]: 77.7 min
50% inhibition time of uric acid production [1, 14]: 20.1 min
stop time of uric acid production [1, 14]: 119.4 min
50% inhibition time of uric acid production ([1]; xanthine 5 μM, inhibitor 50 μM, XO): 38.3 min
ratio of 50% inhibition time, oxypurinol (min)/allopurinol (min) ([1]; xanthine 10 μM, inhibitor 2 μM): 10.9
ratio of stop time, oxypurinol (min)/allopurinol (min) ([1]; xanthine 10 μM, inhibitor 2 μM): 14.7
50% inhibition time of uric acid production [1, 8]: 15.3 min
stop time of uric acid production [1, 8]: 101.4 min
50% inhibition time of uric acid production ([1]; xanthine 10 μM, inhibitor 10 μM, XO): 20.8 min
50% inhibition time of uric acid production ([1]; xanthine 10 μM, inhibitor 50 μM, XO): 19.7 min
ratio of 50% inhibition time, oxypurinol (min)/allopurinol (min) ([1]; xanthine 50 μM, inhibitor 2 μM): 8.6
50% inhibition time of uric acid production [1, 9]: 32.7 min
ratio of 50% inhibition time, oxypurinol (min)/allopurinol (min) ([1]; xanthine 50 μM, inhibitor 10 μM): 10.8
50% inhibition time of uric acid production [1, 10]: 13.0 min
ratio of 50% inhibition time, oxypurinol (min)/allopurinol (min) ([1]; xanthine 50 μM, inhibitor 50 μM): 34.0
50% inhibition time of uric acid production [1, 11]: 6.8 min
oxypurinol concentration at which xanthine oxidase is maximally inhibited [5]: 33.75 µM
Ki [6]: 6.35 ± 0.96 µM
Types of inhibition ([6]; XO, substrate xanthine, O2, 295 nm): Competitive
Ki for oxypurinol relative to Ki for allopurinol ([6]; both XO and XDH, allopurinol Ki ref 19): about 10 fold
accumulation of xanthine from hypoxanthine ([4]; up to 500 μM inhibitor, XO and XDH): accumulation of xanthine was still significant even at 500 μM oxypurinol
